Results published in US5276048A, “4-(1H-pyrrol-1-yl)imidazoles with angiotensin II antagonist activity” (Warner-Lambert Company, priority 1992, dated 1994).

Test system: renal hypertensive rats (2-kidney, 1-clip Goldblatt model)
Experiment: blood pressure lowering in renal hypertensive rats (2-kidney, 1-clip Goldblatt model)
Format: in vivo, rat
Details: single oral dose of 30 mg/kg
Protocol: Finally, the compounds of Formula I were tested in vivo for blood pressure lowering effects in renal hypertensive rats (2-kidney, 1-clip Goldblatt model) according to the method described by S. Sen, et al, in Hypertension 1:427-434 (1979) and in Clin. Soc. 57:53-6, 1979.
Illustrative of the in vivo antihypertensive activity for compounds of Formula I is the data for 4-[2-(1-oxo-2,2,2-trifluoroethyl)-1H-pyrrol-1-yl]-2-propyl-1-[(2'-(1H-tetrazol-5-yl)biphen-4-yl)methyl]-1H-imidazole-5-carboxylic acid (Example 14). This compound lowers blood pressure by ≥50 mm Hg and is efficacious for more than 24 hours with a single oral dose of 30 mg/kg in the above rodent model.

CCCc1nc(-n2cccc2C(=O)C(F)(F)F)c(C(=O)O)n1Cc1ccc(-c2ccccc2-c2nnn[nH]2)cc1 [Example 14, 4-[2-(1-Oxo-2,2,2-trifluoroethyl)-1H-pyrrol-1-yl]-2-propyl-1-[(2'-(1H-tetrazol-5-yl)biphen-4-yl)methyl]-1H-imidazole-5-carboxylic acid]
duration of efficacy: more than 24 hours | lowers blood pressure: ≥ 50 mm Hg
